The results in this text go back to patent US20240398788A1, “METHODS OF TREATING CANCER USING HSF1 PATHWAY INHIBITORS” (Institute of Cancer Research, priority 2021, published 2024).

Test [1] deals with TOV-21G ovarian cancer xenograft (ARID1A mutation). Put plainly: TOV-21G ovarian cancer xenograft efficacy study. The following applies: TOV-21G xenograft, 35 mg/kg oral once daily, 5/7 days, 21/19 doses/study days. Format: in vivo, NCr nude mice. On the procedure: The tumor was identified as harboring an ARID1A mutation. […] Vehicle control group n=8 and 35 mg/kg dose group n=11.
(§1) The in vivo efficacy of Compound A was investigated in xenograft tumours in athymic nude mice with a focus on ovarian cancers. […] Of the seven cell lines, SK-OV-3; TOV-21G, OVISE, and IGROV1 were identified as harboring an ARID1A mutation, while OVCAR-5, ES-2, and RMG1 were ARID1A wildtype.
(§2) Once the tumours were established, mice were randomised into vehicle control and treatment groups. Mice in both the vehicle control and treatment groups that were removed during the course of the study due to spontaneous or treatment derived tumour regression, tumour growth approaching license limits, tumour ulceration or loss of condition were excluded from the final analysis of the mean tumour volume and standard error of the mean and up to the point they were removed from the study. The number of mice undergoing complete tumour regression in the treatment group is noted where applicable.
(§3) Two groups of 12 female NCr nude mice (3 groups of 10 for SK-OV-3) were injected with 3-5×10^6 cells of one of the above cancer cell lines, subcutaneously. […] Body weights were taken daily and animals were monitored for signs of toxicity. […]

In test [2] the test system is ES-2 ovarian cancer xenograft (ARID1A wildtype).
Text: as §2
(§4) Two groups of 12 female NCr nude mice (3 groups of 10 for SK-OV-3) were injected with 3-5×10^6 cells of one of the above cancer cell lines, subcutaneously. […] Body weights were taken daily and animals were monitored for signs of toxicity. To evaluate drug levels the animals were euthanised in batches of 3 to 4 at 2, 6 and 24 hours after the last dose and terminal plasma and tumour samples collected for PK analysis.

In test [3] the test system is OVCAR-5 ovarian cancer xenograft (ARID1A wildtype).
Text: as §2, §4

Test [4] deals with RMG1 ovarian cancer xenograft (ARID1A wildtype).
Text: as §2, §4

For test [5], the system named is OVISE ovarian cancer xenograft (ARID1A mutation). In words: OVISE ovarian cancer xenograft efficacy study. Format: in vivo, NCr nude mice. The following applies: 35 mg/kg oral once daily, 5/7 days, 38/52 doses/study days.
Text: as §1, §2, §4

The subject of test [6] is SK-OV-3 ovarian cancer xenograft (ARID1A mutation). Put plainly: SK-OV-3 ovarian cancer xenograft efficacy study. Format: in vivo, athymic nude mice. On the procedure: The tumor was identified as harboring an ARID1A mutation. […] Control and 35 mg/kg group n=10. Horizontal black line is 35 mg/kg group tumour volume on Day 0.
as §1, §2, §3

Test [7] has as its system IGROV1 ovarian cancer xenograft (ARID1A mutation). Put plainly: IGROV1 ovarian cancer xenograft efficacy study. Format: in vivo, NCr nude mice. As to conditions: 35 mg/kg oral once daily, intermittent, 11/15 doses/study days.
Text: as §1, §2, §4

For `CCN1CCN(Cc2ccc3cc(C(=O)Nc4cc(NC(=O)c5ccc6c(c5)OCCO6)ccc4F)ccc3n2)CC1` [Compound A, N-(5-(2,3-Dihydrobenzo[b][1,4]dioxine-6-carboxamido)-2-fluorophenyl)-2-((4-ethylpiperazin-1-yl)methyl)quinoline-6-carboxamide], the “TGI (%)” value in test [1] was 81%; in test [2] (ES-2 xenograft, 35 mg/kg oral once daily, 5/7 days, 12/17 doses/study days), 12%; in test [3] (OVCAR-5 xenograft, 35 mg/kg oral once daily, 5/7 days, 21/27 doses/study days) it was 27%; in test [4] (RMG1 xenograft, 35 mg/kg oral once daily, 5/7 days, 15/19 doses/study days), −3.0%; in test [5], 70%; in test [6] (SK-OV-3 xenograft, 35 mg/kg oral once daily, continuous, 20/20 doses/study days) it was 120%. Also, the “TGI (%)” value in test [7] worked out at 56%. The “efficacy in xenograft model (in words)” value is on record as “did not meet the criteria for efficacy” in test [2] (ES-2 ARID1A wild type model, criterion TGI>50%) and “did not meet the criteria for efficacy” in test [3] (OVCAR-5 ARID1A wild type model, criterion TGI>50%). In addition, in test [4] (RMG1 ARID1A wildtype model), the “inhibition of xenograft tumour growth (in words)” value is listed as “No inhibition of xenograft tumour growth”. Besides, the “sensitivity in xenograft models (in words)” value in test [6] (SK-OV-3, ARID1A mutated, compared with the other six xenografts) is “most sensitive cell line in xenograft models”.
